For series [1], the target named is DPP1 of U937 cells (Homo sapiens (Human), UniProt P53634). The series is described as follows: Activity test of inhibiting DPP1 in U937 cells. The series is classed as cell-based. The following applies: Gly-Phe-AFC probe, read-out: IC50, inhibitory activity on DPP1 of U937 cells. Here is the method:
Experimental Example 2: Activity Test of Inhibiting DPP1 in U937 Cells
Experimental Materials: • 1) Experimental reagents and consumables
The cell plate was placed in a carbon dioxide incubator for 1 day; • (3) after incubation for 1 hour, 100 μM Gly-Phe-AFC probe solution was added thereto, that is, 60 mM Gly-Phe-AFC probe stock solution was diluted with culture medium to 500 μM working solution; the working solution in 10 μL per well was transferred into the cell plate, and the cell plate was incubated in a carbon dioxide incubator for 1 hour;
3) the plate was read, and the data were analyzed: • (1) plate reading: after the cell incubation was completed, the cell plate was taken out, and the plate was read on Victor Nivo.
Using the equation (Sample−Min)/(Max−Min)×100% to convert the raw data into inhibition rate, the IC50 value might be obtained by curve fitting with four parameters (obtained by “log (inhibitor) vs. response—Variable slope” mode in GraphPad Prism).

Series [2] in a line: Pharmacokinetic evaluation in CD-1 mice. The class given is in vivo. The conditions noted are these: oral administration 10.0 mg/kg. Here is the method: Experimental Example 3: Pharmacokinetic Evaluation of the Compound of the Present Disclosure in […]
Experimental purpose: To test the pharmacokinetics of the compound in CD-1 mice in vivo
Experimental materials: CD-1 mice (male, 20 to 40 g, 4 to 6 weeks old, Beijing Vital River)
(§1) The pharmacokinetic characteristics of the compound in rodents after intravenous injection and oral administration were tested according to the standard protocol. In the experiment, the candidate compound was formulated into clear solutions, and a single intravenous injection and oral administration were respectively given to two mice. The vehicle of intravenous injection and oral administration was 1:1:8 DMSO/Solutol/water. The whole blood samples within 24 hours were collected in commercial EDTA2K anticoagulant tubes. The tubes were centrifuged at 6000 g for 3 minutes. The supernatant was separated to obtain plasma samples. 20 times the volume of acetonitrile solution containing internal standard was added to precipitate protein. The mixture was centrifuged. The supernatant was take out. An equal volume of water was added. Then the mixture was centrifuged to take the supernatant as the sample for sampling. Plasma concentration was quantitatively analyzed by LC-MS/MS analysis method, and pharmacokinetic parameters were calculated, such as apparent volume of distribution, clearance rate, half-life, area under the drug-time curve.

A short description of series [3]: Pharmacokinetic evaluation in SD rats. The series is classed as in vivo. The conditions noted are these: oral administration 10.0 mg/kg. Here is the method:
Experimental Example 4: Pharmacokinetic Evaluation of the Compound of the Present Disclosure in Rats
Experimental purpose: To test the pharmacokinetics of the compound in SD rats in vivo
(§2) Experimental materials: SD rats (male, 200 to 300 g, 6 to 10 weeks old, Beijing Vital River)
as §1, with “rats.” for “mice.”, “is 5:95 DMSO and 10% hydroxypropyl β-cyclodextrin aqueous solution.” for “was 1:1:8 DMSO/Solutol/water.”

Series [4] in a line: Rat tissue (bone marrow) distribution. The series is classed as in vivo. The conditions noted are these: SD rats. Here is the method:
Experimental Example 6: Evaluation of Rat Tissue (Bone Marrow) Distribution of the Compound of the Present Disclosure
Experimental purpose: To test the distribution of the compound in the bone marrow and plasma of SD rats
as §2
The content of the compound in the bone marrow and plasma of rats after oral administration was tested according to the standard protocol. In the experiment, the candidate compound was formulated into a clear solution. The vehicle was 5:95 DMSO and 10% hydroxypropyl β-cyclodextrin aqueous solution. A dose of 5 mg/kg was given to rats as a single oral administration. The whole blood samples and bone marrow samples were collected at 0.25, 0.5, 1, 2, 4, 6, and 24 hours, respectively. The whole blood samples were collected in commercial EDTA2K anticoagulant tubes. The tubes were centrifuged at 6000 g for 3 minutes. The supernatant was separated to obtain plasma samples. The acetonitrile solution containing internal standard was added to precipitate protein. The mixture was centrifuged. The supernatant was take out. An equal volume of water was added. After mixing well, plasma concentration was quantitatively analyzed by LC-MS/MS analysis method, and the area under the drug-time curve was calculated. The left femur of the rat was taken, and the muscle was removed. One end was cut off, placed in a centrifuge tube with the open end downwards. The tubes were centrifuged at 8000 rpm for 1 minute. The precipitate was bone marrow. The bone marrow was mixed with 50% methanol-water, grinded into a homogenate. The homogenate was added with an acetonitrile solution containing an internal standard to precipitate protein. The mixture was centrifuged to take the supernatant, added with an equal volume of water. After mixing well, the drug concentration in bone marrow was quantitatively analyzed by LC-MS/MS analysis method, and the area under the drug-time curve was calculated.
The calculation formula of bone marrow/plasma distribution coefficient is: Bone marrow/Plasma Ratio=bone marrow AUC0-last/plasma AUC0-last.

Where [5] appears, read: intravenous injection 2.0 mg/kg.
Setting [6] is: plasma, intravenous injection 2.0 mg/kg.
Where [7] appears, read: plasma, intravenous injection 2.0 mg/kg, read-out: Peak concentration Cmax.
Setting [8] is: bone marrow, 5 mg/kg single oral administration.

The record followed here is patent US20240150335A1, “FUSED RING DERIVATIVES CONTAINING 1,4-OXAZEPANE” (MEDSHINE DISCOVERY INC., priority 2021, published 2024).

pIC50: −log10 of the molar value.

Sequence of DPP1 of U937 cells (P53634 25-134): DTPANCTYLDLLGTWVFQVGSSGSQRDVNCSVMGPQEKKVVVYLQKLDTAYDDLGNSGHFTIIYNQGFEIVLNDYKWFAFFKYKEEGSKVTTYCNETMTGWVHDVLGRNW
Sequence of DPP1 of U937 cells (P53634 231-394): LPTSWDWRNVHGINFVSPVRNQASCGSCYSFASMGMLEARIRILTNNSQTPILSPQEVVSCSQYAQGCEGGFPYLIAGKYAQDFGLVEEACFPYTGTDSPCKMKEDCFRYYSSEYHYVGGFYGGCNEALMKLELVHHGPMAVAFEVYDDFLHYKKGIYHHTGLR
Sequence of DPP1 of U937 cells (P53634 395-463): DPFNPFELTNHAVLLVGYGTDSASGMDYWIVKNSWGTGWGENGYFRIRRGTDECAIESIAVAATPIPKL

As a reminder, the pIC50 is −log10 of the IC50, conventionally taken in molar units. Consider `Cn1ncc2ccc(-c3ccc(C[C@@H](C#N)NC(=O)[C@@H]4CNCCCO4)c(F)c3)cc21` [Compound 8], for which, in series [1], the pIC50 was 8.62. For the same molecule, the “Bioavailability F” value in series [2] (setting [5]) came to 79.6%; in series [3] (setting [5]), 39.1%. For the same molecule, the “Clearance rate CL” value came to 18.7 mL/min/kg in series [2] (setting [6]) and 13.1 mL/min/kg in series [3] (setting [6]). Also, the “Volume of distribution at steady state Vdss” value in series [2] (setting [6]) came to 8.3 L/kg; in series [3] (setting [6]) it was 1.9 L/kg. The Cmax in series [2] (setting [7]) turned out to be 2310 nM; in series [3] (setting [7]) it was 2240 nM; in series [4] (plasma, 5 mg/kg single oral administration, read-out: Plasma Peak concentration Cmax), 1020 nM. For the same molecule, the “Area under drug-time curve AUC0-∞ PO” value was 17.008 µM·h in series [2] (plasma) and 11.864 µM·h in series [3] (plasma). In addition, the “Half life T1/2 (PO)” value in series [2] (plasma) is reported as 4.6 h; in series [3] (plasma), 3.2 h. Moreover, the “Bone marrow/plasma distribution coefficient” value in series [4] (5 mg/kg oral, bone marrow AUC0-last/plasma AUC0-last) was determined as 7.0. Further, the “Bone marrow Area under drug-time curve AUC0-last PO” value in series [4] (setting [8]) was 68856 nmol·h/kg. The “Bone marrow Peak concentration Cmax” value in series [4] (setting [8]) is reported as 5014 nmol/kg. For the same molecule, the “Plasma Area under drug-time curve AUC0-last PO” value in series [4] (plasma, 5 mg/kg single oral administration) is 9.902 µM·h.
